Reference: the NIST ThermoML archive (doi:10.1021/acs.jced.5b00367)
Numbers after ± are expanded uncertainties.

Experiment: mn = molality of the nth substance listed, in mol/kg
Conditions: 303.15 K, 100 kPa, Liquid, Alternating current cell with electrodes

SMILES | electrical conductivity (m1 = 0.0005) [S/m] | electrical conductivity (m1 = 0.001) [S/m] | electrical conductivity (m1 = 0.002) [S/m] | electrical conductivity (m1 = 1e-05) [S/m] | electrical conductivity (m1 = 3e-05) [S/m] | electrical conductivity (m1 = 4e-05) [S/m] | electrical conductivity (m1 = 5e-05) [S/m] | electrical conductivity (m1 = 6e-05) [S/m] | electrical conductivity (m1 = 0.0001) [S/m] | electrical conductivity (m1 = 0.005) [S/m] | electrical conductivity (m1 = 0.01) [S/m] | electrical conductivity (m1 = 0.015) [S/m] | further results
CCCCCCCCCCCCCCCC[N+](C)(C)C.[Br-] [N,N,N-trimethyl-1-hexadecanaminium bromide] + O | 0.0061 ± 0.0024 | 0.011 ± 0.0044 | 0.0145 ± 0.0058 | – | – | – | – | – | – | – | – | – | electrical conductivity (m1 = 0.0002): 0.0028 ± 0.0011 S/m; electrical conductivity (m1 = 0.0008): 0.0092 ± 0.0037 S/m; electrical conductivity (m1 = 0.00085): 0.01 ± 0.004 S/m; electrical conductivity (m1 = 0.0009): 0.0103 ± 0.0041 S/m; electrical conductivity (m1 = 0.0012): 0.012 ± 0.0048 S/m; electrical conductivity (m1 = 0.0014): 0.0128 ± 0.0051 S/m; electrical conductivity (m1 = 0.0016): 0.0135 ± 0.0054 S/m
CCCCCCCCCC[N+](CC)(CC)CCCCCCCCCC.[Br-] [didecyldiethylammonium bromide] + O | 0.0048 ± 0.0019 | 0.0092 ± 0.0037 | – | 0.00039 ± 0.00019 | 0.00072 ± 0.0003 | 0.00143 ± 0.00058 | 0.00224 ± 0.0009 | 0.00293 ± 0.0012 | 0.0034 ± 0.0014 | 0.0106 ± 0.0042 | 0.0132 ± 0.0053 | 0.016 ± 0.0064 | electrical conductivity (m1 = 2e-05): 0.0006 ± 0.00025 S/m; electrical conductivity (m1 = 0.02): 0.0182 ± 0.0073 S/m
CCCCCCCCCCCC[N+](CC)(CC)CCCCCCCCCCCC.[Br-] [didodecyldiethylammonium bromide] + O | 0.00484 ± 0.0019 | 0.00678 ± 0.0027 | 0.00928 ± 0.0037 | – | 0.00146 ± 0.00059 | 0.00189 ± 0.00076 | 0.0025 ± 0.001 | 0.0032 ± 0.0013 | 0.00362 ± 0.0014 | – | – | – | electrical conductivity (m1 = 0.003): 0.0121 ± 0.0049 S/m
CCCCCCCCCCCCCCCC[N+](CC)(CC)CCCCCCCCCCCCCCCC.[Br-] [diethyldihexadecylammonium bromide] + O | – | – | – | 0.00081 ± 0.00035 | 0.00114 ± 0.00046 | 0.00124 ± 0.0005 | 0.00132 ± 0.00053 | 0.00136 ± 0.00054 | – | – | – | – | electrical conductivity (m1 = 5e-06): 0.00045 ± 0.00023 S/m; electrical conductivity (m1 = 1.5e-05): 0.00106 ± 0.00042 S/m
CCCCCCCCCCCC[N+](C)(C)C.[Br-] [dodecyltrimethylammonium bromide] + O | – | 0.014 ± 0.0056 | – | – | – | – | – | – | – | 0.055 ± 0.022 | 0.1 ± 0.04 | 0.15 ± 0.06 | electrical conductivity (m1 = 0.012): 0.12 ± 0.048 S/m; electrical conductivity (m1 = 0.0181): 0.165 ± 0.066 S/m; electrical conductivity (m1 = 0.0201): 0.165 ± 0.066 S/m; electrical conductivity (m1 = 0.0252): 0.18 ± 0.072 S/m; electrical conductivity (m1 = 0.0302): 0.195 ± 0.078 S/m; electrical conductivity (m1 = 0.0402): 0.23 ± 0.092 S/m; electrical conductivity (m1 = 0.0502): 0.26 ± 0.1 S/m
